Measured values from ChEMBL document CHEMBL4196088, “Induction of cell killing and autophagy by amphiphilic pyrrolidine derivatives on human pancreatic cancer cells” (Eur J Med Chem, 2018).
pIC50: −log10 of the molar value. The source made the active and inactive calls. No cut-off for these calls is given here.

How the values were obtained:
PANC-1 [1] = assay: Induction of apoptosis in human PANC1 cells assessed as accumulation at sub-G0/G1 phase at 20 uM after 24 hrs by propidium iodide staining based flow cytometry (reference value: 0.6 to 0.7%); assay type: functional
HeLa = assay: Growth inhibition of human HeLa cells after 72 hrs; assay type: functional, cell-based
[2] = Induction of apoptosis in HPNE cells assessed as accumulation at sub-G0/G1 phase at 20 uM after 48 hrs by propidium iodide staining based flow cytometry (reference value: 0.7%); assay type: cell-based; conditions: human
Fibroblast [3] = assay: Induction of apoptosis in human primary fibroblasts assessed as accumulation at sub-G0/G1 phase at 10 uM after 48 hrs by propidium iodide staining based flow cytometry (reference value: 6.1%); assay type: cell-based
[4] = Induction of apoptosis in HPNE cells assessed as accumulation at sub-G0/G1 phase at 20 uM after 72 hrs by propidium iodide staining based flow cytometry (reference value: 6.6%); assay type: cell-based; conditions: human
PK9 [5] = assay: Induction of apoptosis in human PK9 cells assessed as accumulation at sub-G0/G1 phase at 10 uM after 72 hrs by propidium iodide staining based flow cytometry (reference value: 4%); assay type: functional
[6] = Induction of apoptosis in HPNE cells assessed as accumulation at sub-G0/G1 phase at 20 uM after 24 hrs by propidium iodide staining based flow cytometry (reference value: 0.6%); assay type: cell-based; conditions: human
[7] = Induction of apoptosis in HPNE cells assessed as accumulation at sub-G0/G1 phase at 10 uM after 48 hrs by propidium iodide staining based flow cytometry (reference value: 0.7%); assay type: cell-based; conditions: human
Fibroblast [8] = assay: Induction of apoptosis in human primary fibroblasts assessed as accumulation at sub-G0/G1 phase at 10 uM after 72 hrs by propidium iodide staining based flow cytometry (reference value: 6.7%); assay type: cell-based
Fibroblast [9] = assay: Induction of apoptosis in human primary fibroblasts assessed as accumulation at sub-G0/G1 phase at 10 uM after 24 hrs by propidium iodide staining based flow cytometry (reference value: 4.8%); assay type: cell-based
Fibroblast [10] = assay: Induction of apoptosis in human primary fibroblasts at 20 uM after 48 hrs by propidium iodide staining based flow cytometry (reference value: 6.1%); assay type: cell-based
[11] = Induction of apoptosis in HPNE cells assessed as accumulation at sub-G0/G1 phase at 10 uM after 24 hrs by propidium iodide staining based flow cytometry (reference value: 0.6%); assay type: cell-based; conditions: human
PK9 [12] = assay: Induction of apoptosis in human PK9 cells assessed as accumulation at sub-G0/G1 phase at 20 uM after 24 hrs by propidium iodide staining based flow cytometry (reference value: 2.2%); assay type: functional
PANC-1 [13] = assay: Induction of apoptosis in human PANC1 cells assessed as accumulation at sub-G0/G1 phase at 10 uM after 48 hrs by propidium iodide staining based flow cytometry (reference value: 0.2 to 2.9%); assay type: functional
PK9 [14] = assay: Induction of apoptosis in human PK9 cells assessed as accumulation at sub-G0/G1 phase at 20 uM after 72 hrs by propidium iodide staining based flow cytometry (reference value: 4%); assay type: functional
PK9 [15] = assay: Induction of apoptosis in human PK9 cells assessed as accumulation at sub-G0/G1 phase at 20 uM after 48 hrs by propidium iodide staining based flow cytometry (reference value: 3.8%); assay type: functional
PK9 [16] = assay: Induction of apoptosis in human PK9 cells assessed as accumulation at sub-G0/G1 phase at 10 uM after 24 hrs by propidium iodide staining based flow cytometry (reference value: 2.2%); assay type: functional
Fibroblast [17] = assay: Induction of apoptosis in human primary fibroblasts at 20 uM after 72 hrs by propidium iodide staining based flow cytometry (reference value: 6.7%); assay type: cell-based
PK9 [18] = assay: Induction of apoptosis in human PK9 cells assessed as accumulation at sub-G0/G1 phase at 10 uM after 48 hrs by propidium iodide staining based flow cytometry (reference value: 3.8%); assay type: functional
PANC-1 [19] = assay: Induction of apoptosis in human PANC1 cells assessed as accumulation at sub-G0/G1 phase at 10 uM after 72 hrs by propidium iodide staining based flow cytometry (reference value: 1.6 to 3.2%); assay type: functional
PANC-1 [20] = assay: Induction of apoptosis in human PANC1 cells assessed as accumulation at sub-G0/G1 phase at 20 uM after 72 hrs by propidium iodide staining based flow cytometry (reference value: 1.6 to 3.2%); assay type: functional
PANC-1 [21] = assay: Induction of apoptosis in human PANC1 cells assessed as accumulation at sub-G0/G1 phase at 20 uM after 48 hrs by propidium iodide staining based flow cytometry (reference value: 0.2 to 2.9%); assay type: functional
Fibroblast [22] = assay: Induction of apoptosis in human primary fibroblasts at 20 uM after 24 hrs by propidium iodide staining based flow cytometry (reference value: 4.8%); assay type: cell-based
[23] = Induction of apoptosis in HPNE cells assessed as accumulation at sub-G0/G1 phase at 10 uM after 72 hrs by propidium iodide staining based flow cytometry (reference value: 6.6%); assay type: cell-based; conditions: human
PANC-1 [24] = assay: Induction of apoptosis in human PANC1 cells assessed as accumulation at sub-G0/G1 phase at 10 uM after 24 hrs by propidium iodide staining based flow cytometry (reference value: 0.6 to 0.7%); assay type: functional
PANC-1 [25] = assay: Growth inhibition of human PANC1 cells after 72 hrs by XTT assay; assay type: functional, cell-based; conditions: PANC-1, 72 h
BXPC-3 = assay: Growth inhibition of human BxPC3 cells after 72 hrs by XTT assay; assay type: functional, cell-based; conditions: BXPC-3, 72 h
PK9 [26] = assay: Growth inhibition of human PK9 cells after 72 hrs by MTT assay; assay type: functional, cell-based; conditions: PK9, 72 h
MIA PaCa-2 = assay: Growth inhibition of human MIAPaCa2 cells after 72 hrs by MTT assay; assay type: functional, cell-based; conditions: MIA PaCa-2, 72 h
PK9 [27] = assay: Growth inhibition of human PK9 cells at 20 uM after 72 hrs by MTT assay; assay type: functional, cell-based
SK-BR-3 = assay: Growth inhibition of human SKBR3 cells at 20 uM after 72 hrs; assay type: functional, cell-based
PANC-1 [28] = assay: Growth inhibition of human PANC1 cells at 20 uM after 72 hrs; assay type: functional, cell-based

| SMILES | Activity (PANC-1 [1]) | Activity (PANC-1 [13]) | Activity (PANC-1 [19]) | Activity (PANC-1 [20]) | Activity (PANC-1 [21]) | Activity (PANC-1 [24]) | pIC50 (PANC-1 [25]) | pIC50 (BXPC-3) | pIC50 (PK9 [26]) | pIC50 (MIA PaCa-2) | growth inhibition (GI) (PK9 [27]) | growth inhibition (GI) (SK-BR-3) | growth inhibition (GI) (PANC-1 [28]) | further results |
| --- | --- | --- | --- | --- | --- | --- | --- | --- | --- | --- | --- | --- | --- | --- |
| Cl.O[C@H]1CN[C@H](COCCCCCCCC/C=C/c2ccc(Oc3ccccc3)cc2)C1 | 14.7% | 21.8% | 28.2% | 43.8% | 33.7% | 12.9% | – | – | – | – | – | – | – | pIC50 (HeLa): 5.41; Activity [2]: 87.5%; Activity (Fibroblast [3]): 6.5%; Activity [4]: 94.3%; Activity (PK9 [5]): 6.9%; Activity [6]: 66.6%; Activity [7]: 72.9%; Activity (Fibroblast [8]): 8.1%; Activity (Fibroblast [9]): 9.1%; Activity (Fibroblast [10]): 74.8%; Activity [11]: 42.8%; Activity (PK9 [12]): 30.1%; Activity (PK9 [14]): 48.7%; Activity (PK9 [15]): 46.5%; Activity (PK9 [16]): 3.5%; Activity (Fibroblast [17]): 72.7%; Activity (PK9 [18]): 7.4%; Activity (Fibroblast [22]): 40.1%; Activity [23]: 85.9% |
| C(=C\c1ccc(-c2ccccc2)cc1)/CCCCCCOC[C@@H]1CCCN1.Cl | 2.3% | 1.6% | 4.7% | 4.3% | 2.1% | 0.9% | 5.28 | 5.24 | 5.49 | 5.54 | – | – | – | – |
| C(=C\c1ccc(-c2ccccc2)cc1)/CCCCCCCCCOC[C@@H]1CCCN1.Cl | 7% | 1.9% | 8.4% | 11.6% | 2.2% | 1.6% | 5.14 | 5.15 | 5.26 | 5.08 | – | – | – | – |
| CCCCCCCC/C=C\CCCCCCCCOC[C@@H]1[C@@H](O)[C@@H](O)CN1C(C)=O | – | – | – | – | – | – | – | – | – | – | inactive | Active | inactive | – |
| CCCCCCCC/C=C\CCCCCCCCOC[C@@H]1[C@@H](O)[C@@H](O)CN1C(N)=O | – | – | – | – | – | – | – | – | – | – | inactive | Active | inactive | – |
| CCCCCCCC/C=C\CCCCCCCCOC[C@@H]1CCCN1.Cl | 2.2% | 4.6% | 14.4% | 14.1% | 2.3% | 2.4% | 5.33 | 5.28 | 5.19 | 5.27 | – | – | – | – |
